Laboratory results taken from patent publication US9844522B2 (LIFE & BRAIN GMBH, priority 2012, dated 2017).
“Also recorded” adds a separate entry of the source. Read-outs that look alike come from different tables or passages of the source.

Experiments:
standard GBM cell lines = test: Combinatorial pharmacodynamics niclosamide and TMZ (alamarBlue); format: cell-based; conditions: Homo sapiens; 50 μM TMZ alone, GBMs (standard cell lines); read-out: Metabolic activity, % of control levels
Experimental: (§1) For pharmacodynamic analysis, 5×10^4 cells were plated in 12-well-plates at 24 hours before application of compound-series and compound combinations, respectively. alamarBlue®-based analysis was conducted at 3-5 days post treatment. Experiments were performed in triplicates. IMC50 was defined as the compound concentration that reduced the metabolic activity by 50% compared to control conditions and determined via data analysis in GraphPad Prism 4.0.

pGBMs [1] = test: as above; format: cell-based; conditions: Homo sapiens; 50 μM TMZ alone, pGBMs n=7, triplicate; read-out: Metabolic activity, % of control levels
Experimental: as §1

[2] = system: #155 non-malignant primary adult human neural progenitor cells (AHNPs); test: Primary drug screening, alamarBlue metabolic activity; format: cell-based; conditions: control cells 155; 1 µM niclosamide for 5 days, triplicate
Experimental: (§2) The tested compounds were supplied to cells proliferating in a linear-exponential phase. For all used cell samples, respective titration experiments were conducted before analysis. 24 hours after seeding 2-3×10^3 cells/well into laminin/poly-L-ornithine coated 96-well plates, cells were treated with 1 μM of each compound (stock solution 10 mM in DMSO). Control cells were treated with 0.01-0.1% DMSO. Five days after application, metabolic activity as a measure of cell viability was determined using the alamarBlue® assay according to the manufacturers recommendations (Life Technologies). Fluorescence was measured using an Infinite200 microplate reader (Tecan) at λex=540 nm and λem=590 nm. Experiments were performed in triplicates for each sample.
A library comprising of 160 synthetic and natural toxic substances was used for the screening approach. Four pGBMs, previously shown to maintain patient- and GBM-specific signatures and to contain sub-populations of tumor cells with and without stem cell qualities served as a discovery platform (#'s 023, 035, 046, 106; see (10)). Primary screening was conducted based on the alamarBlue® assay determining the metabolic activity as a measure for cellular viability at day 5 following single application of the library's compounds. […]

[3] = system: phospho-β-catenin (Ser552); test: Immunofluorescence of nuclear phospho-β-catenin (Ser552); format: cell-based, human; conditions: pGBMs
From the text: (§3) It is known that a circumscribed number of transcription factors and associated signaling pathways are overactive in human cancer cells (21). […] Characteristic for the active state of this mechanism, known to play an important role for tumor invasion, is an enhanced nuclear accumulation of β-catenin, phosphorylated at Ser^552 (26).

Cyclin D1 = test: Western blot of Cyclin D1; format: cell-based, human; conditions: 24 hours post application
Experimental: (§4) Cell extracts were prepared at 24 to 144 hours following compound application and processed as described (49). Blot membranes were incubated overnight at 4° C. with antibodies against Cyclin-D1 (1:1000; BD Pharmingen), cleaved-Notch1 (1:1000), or phospho-S6 protein (1:1000; all Cell signaling) respectively. After washing, peroxidase-coupled secondary antibodies (Santa Cruz) were added for 1 hour. After washing, blots were developed using the ECL system (Millipore).

[4] = system: pGBM #046 grafts in Rag2Il2rg−/− mice; test: Orthotopic tumor xenograft of pre-treated cells; format: in vivo; conditions: niclosamide pre-treated #046 pGBMs, n=5
[5] = system: glioma/GBM cell lines LN229, T98G, U87, U138, U373; test: Pharmacodynamic analysis (alamarBlue dose-response, IC50); format: cell-based, human; conditions: defined media (dm) conditions
Experimental: as §1

NFKBIA = test: qRT-PCR of NFKBIA expression; format: cell-based, human; conditions: NFKBIA+/− pGBMs and standard GBM models under dm conditions
From the text: On the other hand, it is known that the inhibition of NF-κB alone may not severely affect most solid tumors, rather that it may help to prevent resistance of cancer cells to chemotherapy (30, 31).

[6] = system: non-malignant hnNCs (human non-malignant neural cells); test: Pharmacodynamic analysis (alamarBlue dose-response); format: cell-based; conditions: three hnNCs, defined culture conditions
Experimental: as §1

[7] = system: Notch pathway (cleaved Notch 1-protein); test: Western blot of cleaved Notch 1; format: cell-based, human; conditions: day 5 after single-dose exposure, 4 pGBMs
Experimental: as §4, §3

[8] = system: hnNCs co-cultured with pGBMs; test: Co-culture of pGBMs and hnNCs; format: cell-based, human; conditions: dm conditions, niclosamide 1 μM
[9] = system: pGBMs (primary glioblastoma cells); test: Primary drug screening, alamarBlue metabolic activity; format: cell-based, human; conditions: for Metabolic activity in % of the activity of a control without niclosamide: triplicate
Experimental: as §2
(§5) A library comprising of 160 synthetic and natural toxic substances was used for the screening approach. Four pGBMs, previously shown to maintain patient- and GBM-specific signatures and to contain sub-populations of tumor cells with and without stem cell qualities served as a discovery platform (#'s 023, 035, 046, 106; see (10)). Primary screening was conducted based on the alamarBlue® assay determining the metabolic activity as a measure for cellular viability at day 5 following single application of the library's compounds. In the experiments, every compound that reduced the mean metabolic activity of the 4 pGBMs below 50% of control levels was considered as a ‘hit’.

U87 glioma cell line = test: as above; format: cell-based, human; conditions: 1 µM niclosamide for 5 days, triplicate
Experimental: as §2, §5

21 pGBMs = test: Pharmacodynamic analysis (alamarBlue dose-response, IC50); format: cell-based; conditions: Homo sapiens, 120 h
Experimental: as §1

[10] = system: self-renewing, multipotent cells among pGBMs; test: Neurosphere assay; format: cell-based, human; conditions: single application 1.5 μM, vital cells collected at day 5
[11] = system: mTOR signaling (phosphorylated S6-protein); test: Western blot of phospho-S6 protein; format: cell-based, human; conditions: day 5 after single-dose exposure, 4 pGBMs
Experimental: as §4, §3

[12] = system: NF-κB-signaling (phospho-p65-NFκB protein); test: Western blot of phospho-p65-NFκB (phospho-RELA); format: cell-based, human
[13] = system: pGBM #GNV019 grafts in Scid Beige mice; test: Orthotopic tumor xenograft of pre-treated cells; format: in vivo; conditions: niclosamide pre-treated #GNV019 cells, single exposure, n=6
[14] = system: non-malignant human cell sample #155; test: Annexin V/Hoechst FACS analysis; format: cell-based; conditions: 5 days after application
Experimental: (B) CYCLIN D1 (CCND1)-western blot of cell extracts derived at this time point. […] Inset: mean data (n=5 pGBMs; **p<0.01). […] Right inset: representative scatter plots (#046). […] The graph exemplifies the time course of scratch closure for case #046 (mean±SD; triplicate analysis).
1×10^5 cells were collected at 5 days following compound application, settled by centrifugation, re-suspended in 100 μl AnnexinV buffer and incubated with 5 μl Annexin V-FITC for 1 hour at room temperature. To distinguish between living and dead cells, labeling with 1.2 μg/ml Hoechst 33258 was used Annexin V presence was determined using standard conditions in a LSRII equipped with FACSDiva Software (BD Bioscience). 2×10^4 cells were counted per measurement. The term ‘avital cells’ was used for Annexin V^+−, Annexin V^+/H33258^+, and H33258^+ cells.

pGBMs [15] = test: Proliferation kinetics / long-term cell growth (CellaVista); format: cell-based, human
pGBMs [16] = test: Annexin V/Hoechst FACS analysis; format: cell-based, human; conditions: 5 days after application
[17] = studies in animals; cited from earlier work
pGBMs [18] = test: Cell migration analysis (scratch assay); format: cell-based, human; conditions: sub-toxic concentrations, 125 nM
Experimental: 5×10^4 cells were plated into 12-well-plates coated with laminin/poly-L-ornithine. […] Three days after plating (at a cell density of 70%), a scratch/wound was inflicted with a sterile pipette tip. Thereafter, culture media was exchanged to remove non-adherent cells. The Plaque Assay application of the CellaVista® system (Roche Diagnostics) was used according to the manufacturer's instructions to monitor the scratch/wound size over time. Triplicate analysis data±SEM.

WNT/CTNNB1 target genes = test: qRT-PCR of β-catenin target genes; format: cell-based, human; conditions: pGBMs
From the text: as §3

NFKBIA+/− pGBMs = test: Control study with NFκB activator in combinatorial treatment; format: cell-based, human; conditions: NFKBIA+/− genotypes; niclo 1 μM, temozolomide 50 μM, TNF-a 50 ng/ml, 3 days
Experimental: FIG. 16: TNF-a antagonizes synergistic activity in NFKBIA+/− pGBMs. Graphs present data from combinatorial treatment paradigms in NFKBIA+/− (black) versus NFKBIA+/+ (gray) pGBMs at 3 days after compound application (niclo, 1 μM; temozolomide, 50 μM; TNF-a, 50 ng/ml). Insets, Western blot analyses of pREL A, indicating NF-kB pathway activity 24 hours after exposure to TNF-a, (Ta; 50 ng/ml) or 0.002% bovine serum albumin (C; control). ***p<0.001; **p<0.01; *p<0.05 (triplicates; mean±SD; one-way ANOVA and Tukey post hoc tests).

Molecule: Cn1nnc2c(C(N)=O)ncn2c1=O [TMZ, temozolomide]
- activity at 50 µM (standard GBM cell lines): 89 ± 8%
- activity at 50 µM (pGBMs [1]): 94 ± 4%

Molecule: O=C(Nc1ccc([N+](=O)[O-])cc1Cl)c1cc(Cl)ccc1O [niclosamide]
- Metabolic activity in % of the activity of a control without niclosamide [2]: 75.4%
- Nuclear phospho-β-catenin (Ser552) antigen [3]: strong decrease
- Cyclin D1 expression (Cyclin D1): strong decrease
- Time after engraftment at which tumors developed / animals distressed ([4]; 10^6 cells into striatum): 153 ± 23 days
- Animals with tumor development [4]: 4/5
- Niclosamide effects on standard GBM model cell lines under dm conditions [5]: highly similar to findings obtained from pGBMs
- NFKBIA expression (NFKBIA): strongly up-regulate
- Sensitivity of non-malignant hnNCs compared with pGBMs [6]: significantly lower level of sensitivity
- Notch pathway activity (cleaved Notch 1-protein levels) [7]: concentration-dependent inhibition
- Sensitivity of hnNCs in co-culture with pGBMs [8]: lower sensitivity of hnNCs can be confirmed
- activity at 1 µM ([9]; Homo sapiens, 120 h, day 5 after single application, 1 μM of each compound, read-out: Mean metabolic activity of the 4 pGBMs, % of control levels ('hit' criterion)): < 50%
- Metabolic activity in % of the activity of a control without niclosamide, pGBMs average ([9]; average of pGBMs 023, 035, 046, 106, 1 µM niclosamide for 5 days): 26.4%
- Metabolic activity in % of the activity of a control without niclosamide ([9]; pGBM 023, 1 µM niclosamide for 5 days): 32.3%
- Metabolic activity in % of the activity of a control without niclosamide ([9]; pGBM 035, 1 µM niclosamide for 5 days): 5.6%
- Metabolic activity in % of the activity of a control without niclosamide ([9]; pGBM 046, 1 µM niclosamide for 5 days): 34.6%
- Metabolic activity in % of the activity of a control without niclosamide ([9]; pGBM 106, 1 µM niclosamide for 5 days): 33.0%
- Metabolic activity in % of the activity of a control without niclosamide (U87 glioma cell line): 66.5%
- IC50 (21 pGBMs; day 5, read-out: IC50 (50% reduction of relative metabolic activity), lower end of range over 21 pGBMs): ≥ 300 nM
- IC50 (21 pGBMs; day 5, read-out: IC50 (50% reduction of relative metabolic activity), upper end of range over 21 pGBMs): ≤ 1200 nM
- Frequencies of self-renewing, multipotent (sphere-forming) cells [10]: reduced the frequencies of self-renewing, multipotent cells among pGBMs strongly
- Levels of phosphorylated S6-protein [11]: decrease in all samples
- NF-κB pathway (phospho-p65-NFκB protein levels) ([12]; pGBMs #046 and #078 (NFKBIA+/−) only, of four cases): pathway inhibition
- Tumor forming capacity of grafted cells [13]: no animal that received niclosamide pre-treated grafts showed evidence for tumor formation; also recorded: completely extinguished the tumor forming capacity
- Pro-apoptotic effects in non-malignant cells [14]: lack of pro-apoptotic effects
- Delay of recovery of vital cells from cytostatic effects (long-term growth) (pGBMs [15]; single application 1.5 μM): 14 to 23 days
- Growth delay (pGBMs [15]; single exposure, 1.5 μM, pGBMs 046, 078, 106): 5 days
- Vital cells (pro-apoptotic effect) (pGBMs [16]): strong and pGBM-selective decrease of vital cells
- Mutagenic, oncogenic, embryotoxic activity and cumulative effects [17]: no mutagenic, oncogenic, or embryotoxic activity and no cumulative effects
- Effect on migration (scratch closure) (pGBMs [18]): anti-migratory effects
- Expression of β-catenin target genes (WNT/CTNNB1 target genes): significantly decreased

Molecule: TNFα
- Effect on niclosamide/TMZ synergy (NFKBIA+/− pGBMs): counteracted synergy effects
- NFκB activity in pGBMs ([12]; TNF-a 50 ng/ml, 24 hours): activated NFκB
